Reference: patent US20210214358A1, “CDK4/6 INHIBITOR AND PHARMACEUTICALLY ACCEPTABLE SALT AND POLYMORPH THEREOF AND USE THEREOF” (SHANGHAI HAIYAN PHARMACEUTICAL TECHNOLOGY CO., LTD., priority 2018, published 2021)
Values after ≈ are worked out from the molar mass of the structure shown. Read-outs that look alike come from different tables or passages of the source.

Experiments:
[1] = Stability experiment: content and related substance by HPLC; type: physicochemical
Experimental: (§1) 1. Stability experiment of crystal form A and crystal form B-1 • (A) An appropriate amount of samples were weighed respectively and placed open at room temperature and under accelerated conditions (40° C./75% RH), on day 0, 7, 14, and 28 • (B) Crystal form A was placed in an oven at 60° C., on day 14, 32.
(§2) The content and related substance changes were detected by HPLC, and XRD was measured at the same time to investigate stability of the crystal forms.

[2] = Hygroscopicity test (DVS); type: physicochemical; conditions: for hygroscopicity (in words): 80% RH at 25° C.; for hygroscopic weight gain: humidity increases to 80% RH at 25° C.
Experimental: The Dynamic Vapor Sorption (DVS) curve: acquired on the DVS Intrinsic of Surface Measurement Systems. The relative humidity at […] is corrected with the deliquescence points of LiCl, Mg (NO3)2 and KCl.

Solubility experiment = type: physicochemical; conditions: for solubility in aqueous medium (summary): aqueous media of Table 6
[3] = Stability experiment: crystal form by XRD; type: physicochemical
Experimental: as §1, §2

[4] = Thermogravimetric analysis; type: physicochemical; conditions: under 50° C.-90° C.
From the text: TGA and DSC pattern: TGA and DSC pattern were collected on TA Q500/5000 thermogravimetric analyzer and TA Q200/2000 differential scanning calorimeter respectively.

CDK6 = biological target: T1, CDK6 (Homo sapiens, UniProt Q00534); assay: Kinase test in vitro (LANCE Ultra, Ulight-4EBP1); type: biochemical
T1 construct: purchased Invitrogen or Carna
From the text: (§3) Recombinant CDK1, CCNB1 and CDK9, and CCNT were purchased from BPS; CDK2, CCNA1, CDK4, CCND1 and CDK6, and CCND1 were purchased from Invitrogen; CDK4, CycD3 and CDK6, and CycD3 were purchased from Carna. Adenosine triphosphate (ATP) was purchased from Life tech. Substrate Ulight-4EBP1 and the corresponding detection antibody were purchased from Perkinelmer. LANCE Ultra system from Perkinelmer is used as the detection system.
(§4) In the kinase test, a compound to be tested was 1:3 diluted for 8 gradient points and added into a reaction plate, and then an appropriate amount of recombinase was added. A buffer [50 mM HEPES pH7.5, 10 mM MgCl2, 3 mM MnCl2, 1 mM EGTA, 0.01% Tween-20, 1 mM TCEP] containing ATP, Ulight-4EBP1 premix at a predetermined concentration was subsequently added, and the kinase reaction began at room temperature. A test solution pre-mixed with 10 mM EDTA and detection antibody was added after a suitable reaction time, and then the fluorescence value was read on Tecan infinite pro after reacting for 1 hour at room temperature. The IC50 was calculated using a four-factor model fitting in a XLfit software.

CDK2 = biological target: T2, CDK2 (Homo sapiens, UniProt P24941); assay: Kinase test in vitro (LANCE Ultra, Ulight-4EBP1); type: biochemical
T2 construct: purchased Invitrogen
From the text: as §3, §4

CDK4 = biological target: T3, CDK4 (Homo sapiens, UniProt P11802); assay: Kinase test in vitro (LANCE Ultra, Ulight-4EBP1); type: biochemical
T3 construct: purchased Invitrogen or Carna
From the text: as §3, §4

CDK1 = biological target: T4, CDK1 (Homo sapiens, UniProt P06493); assay: Kinase test in vitro (LANCE Ultra, Ulight-4EBP1); type: biochemical
T4 construct: purchased BPS
From the text: as §3, §4

[5] = accelerated conditions 40° C./75% RH, open, on day 7
[6] = accelerated conditions 40° C./75% RH, open, on day 14
[7] = accelerated conditions 40° C./75% RH, open, on day 28
[8] = accelerated conditions 40° C./75% RH, open, on day 28, footnote: content obviously higher, measurement has errors
[9] = room temperature and accelerated conditions (40° C./75% RH), up to 28 days
[10] = room temperature, open, on day 7
[11] = room temperature, open, on day 14
[12] = room temperature, open, on day 28
[13] = room temperature, open, on day 28, footnote: content obviously higher, measurement has errors
[14] = 0.1 M HCl, calculated for crystal form I
[15] = Acetone, calculated for crystal form I
[16] = Acetonitrile, calculated for crystal form I
[17] = Ethanol, calculated for crystal form I
[18] = Ethyl acetate, calculated for crystal form I
[19] = H2O, calculated for crystal form I
[20] = Isopropanol, calculated for crystal form I
[21] = Methanol, calculated for crystal form I
[22] = Tetrahydrofuran, calculated for crystal form I
[23] = medium pH4.5, calculated for crystal form I
[24] = medium pH6.8, calculated for crystal form I
[25] = medium pH7.4, calculated for crystal form I
[26] = accelerated conditions for 28 days

T4 sequence (P06493 whole entry): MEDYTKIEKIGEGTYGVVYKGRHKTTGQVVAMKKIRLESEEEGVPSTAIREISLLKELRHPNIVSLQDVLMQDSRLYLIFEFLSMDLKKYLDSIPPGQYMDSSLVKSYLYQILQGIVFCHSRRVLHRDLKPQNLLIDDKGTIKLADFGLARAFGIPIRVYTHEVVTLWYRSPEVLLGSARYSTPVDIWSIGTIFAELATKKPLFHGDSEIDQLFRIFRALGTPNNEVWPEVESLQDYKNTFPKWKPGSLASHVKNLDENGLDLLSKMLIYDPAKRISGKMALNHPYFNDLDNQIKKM
T4 sequence (P14635 whole entry partner): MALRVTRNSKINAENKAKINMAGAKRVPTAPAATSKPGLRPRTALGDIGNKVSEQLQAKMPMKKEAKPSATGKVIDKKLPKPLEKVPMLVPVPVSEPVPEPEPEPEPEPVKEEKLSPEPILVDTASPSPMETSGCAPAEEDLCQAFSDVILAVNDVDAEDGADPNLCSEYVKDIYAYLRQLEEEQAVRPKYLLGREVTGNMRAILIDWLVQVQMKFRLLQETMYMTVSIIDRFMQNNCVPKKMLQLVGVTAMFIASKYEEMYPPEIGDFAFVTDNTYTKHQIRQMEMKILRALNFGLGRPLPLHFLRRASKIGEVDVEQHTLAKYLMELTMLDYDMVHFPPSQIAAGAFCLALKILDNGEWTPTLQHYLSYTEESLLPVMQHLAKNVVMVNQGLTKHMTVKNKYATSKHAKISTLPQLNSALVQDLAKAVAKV
T3 sequence (P11802 whole entry): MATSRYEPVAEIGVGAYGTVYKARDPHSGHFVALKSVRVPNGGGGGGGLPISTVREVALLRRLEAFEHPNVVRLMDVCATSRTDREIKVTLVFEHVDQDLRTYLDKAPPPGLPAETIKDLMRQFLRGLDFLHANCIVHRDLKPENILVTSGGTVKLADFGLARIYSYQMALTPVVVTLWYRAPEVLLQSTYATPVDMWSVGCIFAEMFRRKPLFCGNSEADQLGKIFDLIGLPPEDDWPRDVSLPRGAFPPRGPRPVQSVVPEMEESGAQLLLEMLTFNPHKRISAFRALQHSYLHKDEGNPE
T3 sequence (P24385 whole entry partner): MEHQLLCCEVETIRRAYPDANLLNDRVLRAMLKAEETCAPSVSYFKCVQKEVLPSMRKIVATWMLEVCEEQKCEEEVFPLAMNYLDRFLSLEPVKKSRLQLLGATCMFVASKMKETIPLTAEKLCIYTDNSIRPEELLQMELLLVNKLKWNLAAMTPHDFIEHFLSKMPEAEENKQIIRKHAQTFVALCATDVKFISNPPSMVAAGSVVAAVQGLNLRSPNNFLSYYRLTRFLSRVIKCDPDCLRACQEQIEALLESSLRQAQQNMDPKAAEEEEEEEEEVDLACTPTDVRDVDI
T1 sequence (Q00534 whole entry): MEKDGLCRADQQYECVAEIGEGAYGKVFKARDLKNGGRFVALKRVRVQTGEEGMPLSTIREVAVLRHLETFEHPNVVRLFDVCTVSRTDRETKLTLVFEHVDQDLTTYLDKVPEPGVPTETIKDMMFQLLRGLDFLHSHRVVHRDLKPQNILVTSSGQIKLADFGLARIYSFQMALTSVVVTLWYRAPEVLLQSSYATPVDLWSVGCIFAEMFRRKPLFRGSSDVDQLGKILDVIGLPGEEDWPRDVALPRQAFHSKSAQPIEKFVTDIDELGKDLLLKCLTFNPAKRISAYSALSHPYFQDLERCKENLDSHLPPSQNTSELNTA
T1 sequence (P24385 whole entry partner): as the sequence (P24385 whole entry partner) above

Row | Compound | Content [1, 5] [%] | Impurity peak [1, 5] | Content [1, 6] [%] | Impurity peak [1, 6] | Impurity peak [1, 7] | Content [1, 8] [%] | hygroscopicity (in words) [2] | hygroscopic weight gain [2] [%] | Solubility (Solubility experiment; [14]) [mg/mL] | Solubility (Solubility experiment; [15]) [mg/mL] | Solubility (Solubility experiment; [16]) [mg/mL] | Solubility (Solubility experiment; [17]) [mg/mL] | Solubility (Solubility experiment; [18]) [mg/mL] | Solubility (Solubility experiment; [19]) [mg/mL] | Solubility (Solubility experiment; [20]) [mg/mL] | Solubility (Solubility experiment; [21]) [mg/mL] | Solubility (Solubility experiment; [22]) [mg/mL] | Solubility (Solubility experiment; [23]) [mg/mL] | Solubility (Solubility experiment; [24]) [mg/mL] | Solubility (Solubility experiment; [25]) [mg/mL] | further results
1 | CCN1CCN(Cc2ccc(Nc3ncc4c(n3)-c3c(nc(C5CC5)n3C(C)C)C4)nc2)CC1 [Crystal form A] | 100.97 | none | 104.46 | none | none | 113.75 | slightly hygroscopic | 0.613 | >58.10 | 0.23 (≈ 0.502 mM) | 0.22 (≈ 0.48 mM) | 6.97 (≈ 15.2 mM) | 0.03 (≈ 0.0654 mM) | 11.59 (≈ 25.3 mM) | 0.26 (≈ 0.567 mM) | 41.04 (≈ 89.5 mM) | 0.15 (≈ 0.327 mM) | 14.30 (≈ 31.2 mM) | 19.66 (≈ 42.9 mM) | 17.86 (≈ 38.9 mM) | chemical stability (in words) ([1]; 60° C., 14 and 32 days): chemical properties are stable; Content ([1]; on day 0): 103.14%; Impurity peak ([1]; on day 0): none; Content ([1]; oven at 60° C., on day 14): 106.2%; Impurity peak ([1]; oven at 60° C., on day 14): none; Content ([1]; oven at 60° C., on day 32): 104.5%; Impurity peak ([1]; oven at 60° C., on day 32): none; chemical stability (in words) [1, 9]: chemical properties are stable; Content [1, 10]: 103.82%; Impurity peak [1, 10]: none; Content [1, 11]: 104.20%; Impurity peak [1, 11]: none; Impurity peak [1, 12]: none; Content [1, 13]: 116.27%; solubility in aqueous medium (summary) (Solubility experiment): more than 11 mg/ml; crystal form stability by XRD (in words) [3, 26]: crystal form is stable; crystal form stability by XRD (in words) ([3]; high temperature of 60° C. for 14 days and 32 days): not transformed
2 | CCN1CCN(Cc2ccc(Nc3ncc4c(n3)-c3c(nc(C5CC5)n3C(C)C)C4)nc2)CC1 [Crystal form B-1] | 94.36 | none | 95.19 | none | none | 110.05 | has hygroscopicity | 6.88 | >40.10 | >41.11 | 0.28 (≈ 0.611 mM) | 19.59 (≈ 42.7 mM) | 0.02 (≈ 0.0436 mM) | >40.85 | 0.58 (≈ 1.26 mM) | >45.19 | 0.39 (≈ 0.85 mM) | >29.40 | >27.40 | >25.65 | Content ([1]; on day 0): 94.43%; Impurity peak ([1]; on day 0): none; chemical stability (in words) [1, 9]: chemical properties are stable; Content [1, 10]: 96.50%; Impurity peak [1, 10]: none; Content [1, 11]: 96.45%; Impurity peak [1, 11]: none; Impurity peak [1, 12]: none; Content [1, 13]: 107.12%; solubility in aqueous medium (summary) (Solubility experiment): more than 25 mg/ml; crystal form stability by XRD (in words) [3, 26]: crystal form is stable; weight loss (TGA) [4]: about 7.4%
3 | Cc1c2c(nn1C)CCc1cnc(Nc3ccc(N4CCN(C)CC4)cc3)nc1-2 [compound 1, reference compound] | – | – | – | – | – | – | – | – | – | – | – | – | – | – | – | – | – | – | – | – | IC50 (CDK6): 53 nM; inhibitory activity against CDK6 (in words) (CDK6): strong inhibitory activity; IC50 (CDK2): 23 nM; inhibitory activity against CDK2 (in words) (CDK2): strong inhibitory activity; IC50 (CDK4): 8 nM; inhibitory activity against CDK4 (in words) (CDK4): strong inhibitory activity; IC50 (CDK1): 93 nM; inhibitory activity against CDK1 (in words) (CDK1): strong inhibitory activity

More lines, main results first:

Row | Content [1, 5] [%] | Impurity peak [1, 5] | Content [1, 6] [%] | Impurity peak [1, 6] | Impurity peak [1, 7] | Content [1, 8] [%] | hygroscopicity (in words) [2] | hygroscopic weight gain [2] [%] | Solubility (Solubility experiment; [14]) [mg/mL] | Solubility (Solubility experiment; [15]) [mg/mL] | Solubility (Solubility experiment; [16]) [mg/mL] | Solubility (Solubility experiment; [17]) [mg/mL] | Solubility (Solubility experiment; [18]) [mg/mL] | Solubility (Solubility experiment; [19]) [mg/mL] | Solubility (Solubility experiment; [20]) [mg/mL] | Solubility (Solubility experiment; [21]) [mg/mL] | Solubility (Solubility experiment; [22]) [mg/mL] | Solubility (Solubility experiment; [23]) [mg/mL] | Solubility (Solubility experiment; [24]) [mg/mL] | Solubility (Solubility experiment; [25]) [mg/mL] | Compound | further results
4 | – | – | – | – | – | – | has hygroscopicity | 8.84 | – | >5 | >1 | >50 | >10 | 0.36 (≈ 0.785 mM) | >20 | >100 | >100 | 9.66 (≈ 21.1 mM) | 2.85 (≈ 6.21 mM) | 1.08 (≈ 2.35 mM) | CCN1CCN(Cc2ccc(Nc3ncc4c(n3)-c3c(nc(C5CC5)n3C(C)C)C4)nc2)CC1 [Crystal form I] | solubility ranking of the crystal forms (in words) (Solubility experiment): the lowest solubility; Solubility (Solubility experiment; 0.1 M HCl, simulated gastric fluid, thermodynamic from solid, 0.1 M HCl, calculated for crystal form I, read-out: Solubility): 34.7 mg/mL (≈ 75.7 mM); Solubility (Solubility experiment; 50% acetonitrile, aqueous with cosolvent or surfactant or cyclodextrin, thermodynamic from solid, 50% Acetonitrile, calculated for crystal form I, read-out: Solubility): > 25 mg/mL; Solubility (Solubility experiment; dimethyl sulfoxide, organic solvent or mixture, thermodynamic from solid, Dimethyl sulfoxide, calculated for crystal form I, read-out: Solubility): > 6.6 mg/mL; Solubility (Solubility experiment; methyl tert-butyl ether, organic solvent or mixture, thermodynamic from solid, Methyl tert-butyl ether, calculated for crystal form I, read-out: Solubility): > 2 mg/mL; Solubility (Solubility experiment; n-heptane, organic solvent or mixture, thermodynamic from solid, N-heptane, calculated for crystal form I, read-out: Solubility): < 2 mg/mL
5 | – | – | – | – | – | – | very hygroscopic | 30.74 | >44.74 | 11.47 (≈ 25 mM) | >16.64 | >41.86 | 11.48 (≈ 25 mM) | >38.91 | >42.89 | >30.41 | 39.09 (≈ 85.2 mM) | >35.09 | >33.57 | >38.78 | CCN1CCN(Cc2ccc(Nc3ncc4c(n3)-c3c(nc(C5CC5)n3C(C)C)C4)nc2)CC1 [Crystal form K-1] | solubility ranking of the crystal forms (in words) (Solubility experiment): the best solubility; Solubility (Solubility experiment; thermodynamic from solid, all solvents and media of Table 6, read-out: solubility in organic solvents and aqueous medium (summary)): 11 to 45 mg/mL (≈ 24 to 98.1 mM)
